Reference: the supplement of paper PMC10307832

Tests used:
Assay in all cases: relative viability (nuclei count vs DMSO), 5 days (fraction); higher = more cells survive
Idelalisib + Tozasertib = compound: CC[C@H](Nc1ncnc2[nH]cnc12)c1nc2cccc(F)c2c(=O)n1-c1ccccc1 [Idelalisib] + Cc1cc(Nc2cc(N3CCN(C)CC3)nc(Sc3ccc(NC(=O)C4CC4)cc3)n2)n[nH]1 [Tozasertib] (partner 0.1 µM)
Summary of the method: (§1)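 Lung cancer cell lines were pin-tool dosed in 1536-well plates on the day after seeding, with either a lone drug or a fixed anchor-drug dose plus five library-drug doses (not always all listed) in √10 steps. Nuclei were counted on 4× images after 5 days. Relative viability is the ratio of treated-well to vehicle-well nuclei counts, with each value a median of duplicate plates.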

Pemetrexed + Foretinib = compound: Nc1nc2[nH]cc(CCc3ccc(C(=O)N[C@@H](CCC(=O)O)C(=O)O)cc3)c2c(=O)[nH]1 [Pemetrexed] + COc1cc2c(Oc3ccc(NC(=O)C4(C(=O)Nc5ccc(F)cc5)CC4)cc3F)ccnc2cc1OCCCN1CCOCC1 [Foretinib] (partner 0.25 µM)
Summary of the method: as §1

Idelalisib + Dasatinib = compound: CC[C@H](Nc1ncnc2[nH]cnc12)c1nc2cccc(F)c2c(=O)n1-c1ccccc1 [Idelalisib] + Cc1nc(Nc2ncc(C(=O)Nc3c(C)cccc3Cl)s2)cc(N2CCN(CCO)CC2)n1 [Dasatinib] (partner 0.075 µM)
Summary of the method: as §1

Pemetrexed + Lapatinib = compound: Nc1nc2[nH]cc(CCc3ccc(C(=O)N[C@@H](CCC(=O)O)C(=O)O)cc3)c2c(=O)[nH]1 [Pemetrexed] + CS(=O)(=O)CCNCc1ccc(-c2ccc3ncnc(Nc4ccc(OCc5cccc(F)c5)c(Cl)c4)c3c2)o1 [Lapatinib] (partner 2 µM)
Summary of the method: as §1

| Cell Line | relative viability (Idelalisib + Tozasertib; first compound 0.04 µM) | relative viability (Idelalisib + Tozasertib; first compound 0.1265 µM) | relative viability (Idelalisib + Tozasertib; first compound 0.4 µM) | relative viability (Idelalisib + Tozasertib; first compound 1.265 µM) | relative viability (Idelalisib + Tozasertib; first compound 4 µM) | relative viability (Pemetrexed + Foretinib; first compound 0.002 µM) | relative viability (Pemetrexed + Foretinib; first compound 0.006325 µM) | relative viability (Pemetrexed + Foretinib; first compound 0.02 µM) | relative viability (Pemetrexed + Foretinib; first compound 0.06325 µM) | relative viability (Pemetrexed + Foretinib; first compound 0.2 µM) | relative viability (Idelalisib + Dasatinib; first compound 0.04 µM) | relative viability (Idelalisib + Dasatinib; first compound 0.1265 µM) | relative viability (Idelalisib + Dasatinib; first compound 0.4 µM) | relative viability (Idelalisib + Dasatinib; first compound 1.265 µM) | relative viability (Idelalisib + Dasatinib; first compound 4 µM) | relative viability (Pemetrexed + Lapatinib; first compound 0.002 µM) | relative viability (Pemetrexed + Lapatinib; first compound 0.006325 µM) | relative viability (Pemetrexed + Lapatinib; first compound 0.02 µM) | relative viability (Pemetrexed + Lapatinib; first compound 0.06325 µM) | relative viability (Pemetrexed + Lapatinib; first compound 0.2 µM) |
| --- | --- | --- | --- | --- | --- | --- | --- | --- | --- | --- | --- | --- | --- | --- | --- | --- | --- | --- | --- | --- |
| NCI-H1395 | 0.817 | 0.77 | 0.771 | 0.767 | 0.62 | 0.912 | 0.965 | 1.05 | 0.962 | 0.937 | 0.417 | 0.369 | 0.375 | 0.385 | 0.366 | 0.875 | 1.02 | 1.11 | 0.922 | 0.883 |
| ABC-1 | 0.146 | 0.154 | 0.186 | 0.219 | 0.196 | 1.26 | 0.927 | 1.01 | 0.992 | 1.08 | 0.537 | 0.599 | 0.582 | 0.681 | 0.573 | 1.35 | 1.16 | 1.25 | 1.05 | 1.16 |
| RERF-LC-KJ | 0.539 | 0.502 | 0.47 | 0.474 | 0.449 | 0.84 | 0.84 | 0.866 | 0.857 | 0.749 | 0.808 | 0.829 | 0.726 | 0.687 | 0.668 | 0.739 | 0.835 | 0.842 | 0.892 | 0.692 |
| LU99A | 0.271 | 0.292 | 0.278 | 0.306 | 0.318 | 0.776 | 0.775 | 0.811 | 0.793 | 0.768 | 0.528 | 0.617 | 0.428 | 0.61 | 0.646 | 0.926 | 0.909 | 0.991 | 0.97 | 0.744 |
| NCI-H650 | 0.748 | 0.767 | 0.635 | 0.803 | 0.69 | 1.07 | 0.97 | 1.08 | 0.988 | 1.02 | 0.498 | 0.438 | 0.432 | 0.481 | 0.394 | 0.829 | 0.924 | 0.524 | 0.849 | 0.841 |
| NCI-H2347 | 0.591 | 0.517 | 0.408 | 0.443 | 0.441 | 0.841 | 1.06 | 1.19 | 0.739 | 0.558 | 0.416 | 0.346 | 0.25 | 0.292 | 0.325 | 0.658 | 0.954 | 0.904 | 0.867 | 0.565 |
| HARA | 0.0983 | 0.113 | 0.121 | 0.0975 | 0.101 | 0.856 | 0.87 | 1 | 0.846 | 0.393 | 0.279 | 0.235 | 0.174 | 0.228 | 0.238 | 0.681 | 0.747 | 1.01 | 0.674 | 0.365 |
| NCI-H2228 | 0.292 | 0.216 | 0.223 | 0.271 | 0.239 | 0.71 | – | 0.993 | 0.633 | 0.302 | 0.562 | 0.586 | 0.408 | 0.507 | 0.524 | 0.928 | 0.854 | 1.4 | 0.784 | 0.379 |
| EKVX | 0.411 | 0.419 | 0.336 | 0.342 | 0.317 | 0.733 | 0.795 | 1.05 | 0.908 | 0.491 | 0.492 | 0.549 | 0.348 | 0.436 | 0.341 | 0.17 | 0.191 | 0.194 | 0.185 | 0.182 |
| HCC-827 | 0.457 | 0.447 | 0.389 | 0.453 | 0.398 | 0.903 | 1.03 | 1.03 | 1.01 | 0.916 | 0.31 | 0.318 | 0.357 | 0.285 | 0.177 | 0.178 | 0.196 | 0.169 | 0.191 | 0.166 |
| NCI-H1755 | 0.541 | 0.616 | 0.483 | 0.488 | 0.489 | 0.871 | 0.925 | 0.94 | 0.923 | 0.849 | 0.399 | 0.456 | 0.312 | 0.366 | 0.338 | 0.808 | 1 | 1.03 | 1.04 | 0.894 |
| NCI-H661 | 0.414 | 0.358 | 0.391 | 0.358 | 0.408 | 1.03 | 0.987 | 1.01 | 0.985 | 0.974 | 1.1 | 0.969 | 0.673 | 1.08 | 0.673 | 0.731 | 0.503 | 0.593 | 0.417 | 0.586 |
| NCI-H1944 | 0.272 | 0.229 | 0.219 | 0.224 | 0.211 | – | 0.83 | 0.922 | 0.831 | 0.837 | 0.241 | 0.205 | 0.169 | 0.196 | 0.202 | 0.866 | 0.766 | 0.846 | 0.834 | 0.839 |
| NCI-H23 | 0.39 | 0.528 | 0.363 | – | 0.334 | 1.03 | 0.943 | 1.22 | 0.618 | 0.989 | 0.808 | 0.828 | 0.552 | – | 0.825 | 0.968 | 0.882 | 1.26 | 1.04 | 0.919 |
| HCC-366 | 0.121 | 0.126 | 0.107 | 0.112 | 0.068 | 0.799 | 0.888 | 0.963 | 0.863 | 0.901 | 0.679 | 0.705 | 0.433 | 0.62 | 0.601 | 1.01 | 1.02 | 1.16 | 0.993 | 0.381 |
| LCLC-97TM1 | 0.299 | 0.172 | 0.201 | 0.207 | 0.207 | 1.01 | 0.81 | 0.886 | 0.872 | 0.886 | 0.938 | 0.846 | 0.807 | 0.946 | 0.88 | 1.32 | 0.653 | 1.05 | 1.21 | 0.353 |
